{"source": "patent US20250230146A1", "about": "“CARBOCYCLIC NUCLEOSIDE, OLIGONUCLEOTIDE AND PREPARATION METHODS THEREFOR AND MEDICAL USES THEREOF” (REDFIELD PHARMACEUTICAL INC., priority 2023, published 2025)", "key": {"[1]": {"tested_on": "sense strand (5′-AAAAAAAAAA-3′; SEQ ID NO: 4)", "test": "Melting temperature (Tm) test of antisense strand annealed with sense strand", "settings": "duplex with sense strand 5′-AAAAAAAAAA-3′; UV absorption at 260 nm", "experimental": "A mixture of 1 mL of the sense strand (0.5 OD/mL) and 1 mL of the antisense strand (0.5 OD/mL) was mixed and stirred evenly, heated at 90° C. for 10 min, and then cooled to room temperature. A Tm value of the sample was measured using an ultraviolet spectrophotometer (Agilent, Cary 3500 UV-Vis), the sample was placed in a cuvette with a cap and a temperature probe, a temperature was set to be raised from 20-25° C. to 70-80° C. at a rate of 0.5° C. or 1.0° C. per minute, and ultraviolet absorption at 260 nm was measured at an interval of 0.5° C."}, "[2]": {"tested_on": "snake venom phosphodiesterase (Crotalus admanteus venom phosphodiesterase (CAVP))"}}}
{"substance": "5′-TTTTTTTTTT-3′ [Control antisense strand]", "values": [{"measurement": "Tm", "setting": "[1]", "value": 43, "unit": "°C"}, {"measurement": "degradation by nuclease (in words)", "setting": "[2]", "value": "almost completely degraded"}]}
